Assay results published in patent US7446195B2, “High affinity thiophene-based and furan-based kinase ligands” (Schering Corporation, priority 2005, dated 2008).

Target: CDK-2 (Homo sapiens, UniProt P24941)
Assay: CDK-2 inhibition (Table 1; fluorescence polarization displacement assay)
Type: binding
Details: inhibitory effectiveness toward CDK-2
Protocol: The affinity of lead inhibitors binding to CDK-2 and CDK-2/cyclin A were determined by measuring a Ki value using a fluorescence polarization displacement assay. The deacetylated form of compound BMS-250595 was reacted with Alexa Fluor 647 to generate a compound (BMS-Alexa Fluor647) that bound to both proteins and provided a signal for fluorescence polarization displacement. Binding assays were performed in a 384 well Costar NBS coated plate. A total volume of […] contained concentrations of CDK-2 or CDK-2/cyclin A at […], respectively. The concentration of BMS-Alexa Fluor647 was 50 nM. Serial dilutions of compounds were added to 12 wells. The final buffer concentration was 10 mM Hepes, pH 7.5, 150 mM NaCl, and 1 mM DTT. Samples were incubated at room temperature for 15 minutes and then read in an Analyst HT instrument using an excitation and emission wavelength of 580 and 680 nm, respectively. The […] curve fitting tool described by Zhang et al., 2004 (Zhang R., Mayhood T., Lipari P., Wang Y., Durkin D., Syto R., Gesell J., McNemar C., and Windsor W., Analytical Biochemistry 331 (2004) 138-146)

Structure (SMILES)	IC50
COc1ccc(C(=O)Nc2ccc(C(=O)Nc3ccc(-n4cncn4)cc3)s2)c(C)c1 [Compound 2]	≤ 1000 nM
Cc1cc(OCCO)ccc1NC(=O)c1ccc(C(=O)Nc2ccc(-n3cncn3)cc2)s1 [Compound 4]	≤ 1000 nM
COc1ccc(NC(=O)c2ccc(C(=O)Nc3ccc(-n4cncn4)c(F)c3)o2)c(C)c1 [Compound 5]	≤ 1000 nM
COc1ccc(NC(=O)c2ccc(C(=O)Nc3ccc(-c4nc[nH]n4)c(F)c3)o2)c(C)c1 [Compound 7]	≤ 1000 nM
Cc1cc(Cn2ccnc2)ccc1NC(=O)c1ccc(C(=O)Nc2ccc(-n3cncn3)cc2)s1 [Compound 9]	≤ 1000 nM
Cc1cc(Cn2ccnc2)ccc1NC(=O)c1ccc(C(=O)Nc2ccc(-n3cncn3)c(F)c2)s1 [Compound 10]	≤ 1000 nM
COc1ccc(C(=O)Nc2ccc(C(=O)Nc3ccc(-n4cncn4)c(F)c3)s2)c(C)c1 [Compound 14]	≤ 1000 nM
Cc1cc(N[C@H]2CCNC2)ccc1NC(=O)c1ccc(C(=O)Nc2ccc(-n3cncn3)c(F)c2)s1 [Compound 15]	≤ 1000 nM
O=C(Nc1ccc(-n2cncn2)cc1)c1ccc(C(=O)NC2CCCCC2)o1 [Compound 18]	≤ 1000 nM
O=C(Nc1ccc(-n2cncn2)c(F)c1)c1ccc(C(=O)Nc2ccccc2Cl)s1 [Compound 19]	≤ 1000 nM
Cc1cc(CN2CCOCC2)ccc1NC(=O)c1ccc(C(=O)Nc2ccc(-n3cncn3)c(F)c2)s1 [Compound 20]	≤ 1000 nM
COc1ccc(NC(=O)c2ccc(C(=O)Nc3ccc(-c4nc[nH]n4)c(F)c3)s2)c(C)c1 [Compound 22]	≤ 1000 nM
Cc1cc(CN2CCN(C)CC2)ccc1NC(=O)c1ccc(C(=O)Nc2ccc(-n3cncn3)c(F)c2)s1 [Compound 23]	≤ 1000 nM
Cc1ccccc1NC(=O)c1ccc(C(=O)Nc2ccc(-n3cncn3)cc2)s1 [Compound 24]	≤ 1000 nM
COc1ccc(NC(=O)c2ccc(C(=O)Nc3ccc(-c4nnc[nH]4)cc3)s2)c(C)c1 [Compound 25]	≤ 1000 nM
COc1ccc(NC(=O)c2ccc(C(=O)Nc3ccc(-n4cncn4)cc3)o2)c(C)c1 [Compound 26]	≤ 1000 nM
Cc1cc(N2CCN(C)CC2)ccc1NC(=O)c1ccc(C(=O)Nc2ccc(-n3cncn3)cc2)s1 [Compound 29]	≤ 1000 nM
Cc1cc(N2CCNCC2)ccc1NC(=O)c1ccc(C(=O)Nc2ccc(-n3cncn3)cc2)s1 [Compound 30]	≤ 1000 nM
Cc1cc(CN2CCN(C)CC2)ccc1NC(=O)c1ccc(C(=O)Nc2ccc(-n3cncn3)cc2)s1 [Compound 32]	≤ 1000 nM
O=C(Nc1ccc(-n2cncn2)c(F)c1)c1ccc(C(=O)Nc2ccccc2F)s1 [Compound 37]	≤ 1000 nM
Cc1cc(N[C@H]2CCNC2)ccc1NC(=O)c1ccc(C(=O)Nc2ccc(-n3cncn3)cc2)s1 [Compound 38]	≤ 1000 nM
O=C(Nc1ccc(C(=O)Nc2ccc(-n3cncn3)cc2)s1)c1ccccc1 [Compound 40]	≤ 1000 nM
COc1ccc(C(=O)Nc2ccc(C(=O)Nc3ccc(-n4cncn4)cc3)s2)cc1 [Compound 42]	1000 to 40000 nM
Cc1cc(NCCN(C)C)ccc1NC(=O)c1ccc(C(=O)Nc2ccc(-n3cncn3)cc2)s1 [Compound 44]	1000 to 40000 nM

Structure (SMILES)	IC50
O=C(Nc1ccccc1)c1ccc(C(=O)Nc2ccc(-n3cncn3)cc2)o1 [Compound 45]	1000 to 40000 nM
O=C(Nc1ccc(-n2cncn2)c(F)c1)c1ccc(C(=O)Nc2ccccc2C(F)(F)F)s1 [Compound 46]	1000 to 40000 nM
Cc1cc(CN(C)C)ccc1NC(=O)c1ccc(C(=O)Nc2ccc(-n3cncn3)cc2)s1 [Compound 47]	1000 to 40000 nM
Cc1cc(CN(C)C)ccc1NC(=O)c1ccc(C(=O)Nc2ccc(-n3cncn3)c(F)c2)s1 [Compound 48]	1000 to 40000 nM
O=C(Nc1ccc(-n2cncn2)c(F)c1)c1ccc(C(=O)N[C@H]2CC[C@H](O)CC2)o1 [Compound 49]	1000 to 40000 nM
O=C(NCCN1CCCC1)c1ccc(C(=O)Nc2ccc(-n3cncn3)cc2)s1 [Compound 52]	1000 to 40000 nM
O=C(Nc1ccc(Cl)cc1)c1ccc(C(=O)Nc2ccc(-n3cncn3)cc2)s1 [Compound 53]	1000 to 40000 nM
O=C(Nc1ccc(-n2cncn2)cc1)c1ccc(C(=O)Nc2cccc(Cl)c2)s1 [Compound 54]	1000 to 40000 nM
O=C(Nc1ccc(-n2cncn2)cc1)c1ccc(C(=O)N[C@H]2CCc3ccccc32)s1 [Compound 56]	1000 to 40000 nM
CC(=O)N1CCC(NC(=O)c2ccc(C(=O)Nc3ccc(-n4cncn4)cc3)s2)CC1 [Compound 57]	1000 to 40000 nM
O=C(Nc1ccc(-n2cncn2)cc1)c1ccc(C(=O)Nc2nc3ccccc3s2)s1 [Compound 58]	1000 to 40000 nM
COc1cccc(NC(=O)c2ccc(C(=O)Nc3ccc(-n4cncn4)cc3)s2)c1OC [Compound 59]	1000 to 40000 nM
O=C(Nc1ccc(-n2cncn2)cc1)c1ccc(C(=O)Nc2nc3c(s2)CCCC3)s1 [Compound 60]	1000 to 40000 nM
COc1ccc(NC(=O)c2ccc(C(=O)Nc3ccc(-n4cncn4)cc3)s2)cc1Cl [Compound 61]	1000 to 40000 nM
COc1ccc(Cl)cc1NC(=O)c1ccc(C(=O)Nc2ccc(-n3cncn3)cc2)s1 [Compound 62]	1000 to 40000 nM
O=C(NCc1ccccc1)c1ccc(C(=O)Nc2ccc(-n3cncn3)cc2)s1 [Compound 63]	1000 to 40000 nM
Cn1nc(C2CC2)cc1NC(=O)c1ccc(C(=O)Nc2ccc(-n3cncn3)cc2)s1 [Compound 64]	1000 to 40000 nM
COc1ccc(NC(=O)c2ccc(C(=O)Nc3ccc(F)cc3-n3cncn3)s2)c(C)c1 [Compound 65]	1000 to 40000 nM
COc1ccc(N(C)C(=O)c2ccc(C(=O)Nc3ccc(-n4cncn4)cc3)s2)cc1 [Compound 68]	1000 to 40000 nM
CNCc1ccc(NC(=O)c2ccc(C(=O)Nc3ccc(-n4cncn4)c(F)c3)s2)c(C)c1 [Compound 70]	1000 to 40000 nM
COc1ccc(NC(=O)c2ccc(C(=O)N3CCC(c4ccccn4)C3)s2)c(C)c1 (centres unmarked) [Compound 71]	1000 to 40000 nM
COc1ccc(N(C)C(=O)c2ccc(C(=O)Nc3ccc(-n4cncn4)cc3)s2)c(C)c1 [Compound 72]	1000 to 40000 nM
O=C(Nc1ccc(-n2cncn2)cc1)c1ccc(C(=O)NC2CCCC2)s1 [Compound 73]	1000 to 40000 nM
COC(=O)c1cc(OC)ccc1NC(=O)c1ccc(C(=O)Nc2ccc(-n3cncn3)cc2)s1 [Compound 75]	1000 to 40000 nM

Other lines, results leading:

IC50	Structure (SMILES)
≤ 1000 nM	Cc1cc(N2CCOCC2)ccc1NC(=O)c1ccc(C(=O)Nc2ccc(-n3cncn3)cc2)s1 [Compound 3]
≤ 1000 nM	Cc1cc(N2CCOCC2)ccc1NC(=O)c1ccc(C(=O)Nc2ccc(-n3cncn3)c(F)c2)s1 [Compound 6]
≤ 1000 nM	COc1ccc(C(=O)Nc2ccc(C(=O)Nc3ccc(-c4nc[nH]n4)c(F)c3)s2)c(C)c1 [Compound 8]
≤ 1000 nM	Cc1cc(OCCN2CCOCC2)ccc1NC(=O)c1ccc(C(=O)Nc2ccc(-n3cncn3)cc2)s1 [Compound 11]
≤ 1000 nM	Cc1cc(OCCN2CCN(C)CC2)ccc1NC(=O)c1ccc(C(=O)Nc2ccc(-n3cncn3)cc2)s1 [Compound 12]
≤ 1000 nM	COc1ccc(NC(=O)c2ccc(C(=O)Nc3ccc(-n4cncn4)cc3)s2)c(C)c1 [Compound 13]
≤ 1000 nM	Cc1cc(CN2CCOCC2)ccc1NC(=O)c1ccc(C(=O)Nc2ccc(-n3cncn3)cc2)s1 [Compound 16]
≤ 1000 nM	COc1ccc(NC(=O)c2ccc(C(=O)Nc3ccc(-n4cncn4)c(F)c3)s2)c(C)c1 [Compound 17]
≤ 1000 nM	O=C(Nc1ccc(-n2cncn2)cc1)c1ccc(NC(=O)C2CCCCC2)s1 [Compound 21]
≤ 1000 nM	O=C(Nc1ccc(-n2cncn2)c(F)c1)c1ccc(C(=O)NC2CCCCC2)o1 [Compound 27]
≤ 1000 nM	C[C@H](NC(=O)c1ccc(C(=O)Nc2ccc(-n3cncn3)c(F)c2)o1)C1CCCCC1 [Compound 28]
≤ 1000 nM	Cc1ccccc1NC(=O)c1ccc(C(=O)Nc2ccc(-n3cncn3)cc2)o1 [Compound 31]
≤ 1000 nM	Cc1cc(O)ccc1NC(=O)c1ccc(C(=O)Nc2ccc(-n3cncn3)cc2)s1 [Compound 33]
≤ 1000 nM	Cc1ccccc1C(=O)Nc1ccc(C(=O)Nc2ccc(-n3cncn3)cc2)s1 [Compound 34]
≤ 1000 nM	COc1ccc(NC(=O)c2ccc(C(=O)Nc3ccc(-n4cncn4)cc3)o2)cc1 [Compound 35]
≤ 1000 nM	Cc1cc(N(C)CCN(C)C)ccc1NC(=O)c1ccc(C(=O)Nc2ccc(-n3cncn3)cc2)s1 [Compound 36]
≤ 1000 nM	CN(C(=O)c1ccc(C(=O)Nc2ccc(-n3cncn3)cc2)s1)C1CCCCC1 [Compound 39]
1000 to 40000 nM	COc1ccc(NC(=O)c2ccc(C(=O)N3CCC(Oc4cnccn4)CC3)s2)c(C)c1 [Compound 41]
1000 to 40000 nM	C[C@@H](NC(=O)c1ccc(C(=O)Nc2ccc(-n3cncn3)c(F)c2)o1)C1CCCCC1 [Compound 43]
1000 to 40000 nM	COc1ccc(NC(=O)c2ccc(C(=O)N3CCC(c4ccncc4)C3)s2)c(C)c1 (centres unmarked) [Compound 50]
1000 to 40000 nM	CNCc1ccc(NC(=O)c2ccc(C(=O)Nc3ccc(-n4cncn4)cc3)s2)c(C)c1 [Compound 51]
1000 to 40000 nM	Cc1ccsc1CNC(=O)c1ccc(C(=O)Nc2ccc(-n3cncn3)cc2)s1 [Compound 55]
1000 to 40000 nM	Cn1nc(-c2ccccc2)cc1NC(=O)c1ccc(C(=O)Nc2ccc(-n3cncn3)cc2)s1 [Compound 66]
1000 to 40000 nM	Cc1cc(NC(=O)c2ccc(C(=O)Nc3ccc(-n4cncn4)cc3)s2)n(C)n1 [Compound 67]
1000 to 40000 nM	O=C(Nc1ccncc1)c1ccc(C(=O)Nc2ccc(-n3cncn3)cc2)o1 [Compound 69]
1000 to 40000 nM	O=C(Nc1ccc(-n2cncn2)cc1)c1ccc(C(=O)N2CCc3ccccc3C2)s1 [Compound 74]
